Measured values from PubChem BioAssay AID1259407 (Chemical Carcinogenesis Research Information System (CCRIS), 2018).
Calls of active or inactive are those of the source. No rule for the calls is given here.

Test system: CCRIS mutagenicity, Ames/micronucleus/aberration tests
Test: CCRIS mutagenicity studies
[1] = Test System: AMES SALMONELLA TYPHIMURIUM, Strain/Indicator: TA100, Metabolic Activation: NONE, Method: STANDARD PLATE
[2] = Test System: AMES SALMONELLA TYPHIMURIUM, Strain/Indicator: TA1537, Metabolic Activation: NONE, Method: STANDARD PLATE
[3] = Test System: AMES SALMONELLA TYPHIMURIUM, Strain/Indicator: TA1538, Metabolic Activation: NONE, Method: STANDARD PLATE
[4] = Test System: AMES SALMONELLA TYPHIMURIUM, Strain/Indicator: TA98, Metabolic Activation: NONE, Method: STANDARD PLATE
[5] = Test System: AMES SALMONELLA TYPHIMURIUM, Strain/Indicator: TA1535, Metabolic Activation: NONE, Method: STANDARD PLATE

Structure (SMILES): C[n+]1ccn(CCS(C)(=O)=O)c1/C=N/O
- mutagenic call (Test System: AMES SALMONELLA TYPHIMURIUM, Strain/Indicator: TA97, Metabolic Activation: NONE, Method: STANDARD PLATE): inactive; negative
- mutagenic call (Test System: AMES SALMONELLA TYPHIMURIUM, Strain/Indicator: TA97, Metabolic Activation: RAT, LIVER, S-9, Method: STANDARD PLATE): inactive; negative
- mutagenic call [1]: inactive; negative
- mutagenic call (Test System: AMES SALMONELLA TYPHIMURIUM, Strain/Indicator: TA100, Metabolic Activation: RAT, LIVER, S-9, Method: STANDARD PLATE): inactive; negative
- mutagenic call (Test System: AMES SALMONELLA TYPHIMURIUM, Strain/Indicator: TA104, Metabolic Activation: NONE, Method: STANDARD PLATE): inactive; negative
- mutagenic call (Test System: AMES SALMONELLA TYPHIMURIUM, Strain/Indicator: TA104, Metabolic Activation: RAT, LIVER, S-9, Method: STANDARD PLATE): inactive; negative
- mutagenic call [2]: inactive; negative
- mutagenic call (Test System: AMES SALMONELLA TYPHIMURIUM, Strain/Indicator: TA1537, Metabolic Activation: RAT, LIVER, S-9, Method: STANDARD PLATE): inactive; negative
- mutagenic call [3]: inactive; negative
- mutagenic call (Test System: AMES SALMONELLA TYPHIMURIUM, Strain/Indicator: TA1538, Metabolic Activation: RAT, LIVER, S-9, Method: STANDARD PLATE): inactive; negative

Structure (SMILES): O=Nn1cc(CCO)c2ccccc21
- mutagenic call (Test System: AMES SALMONELLA TYPHIMURIUM, Strain/Indicator: TA97A, Metabolic Activation: NONE, Method: STANDARD PLATE): active; positive
- mutagenic call [4]: active; positive
- mutagenic call [1]: active; positive
- mutagenic call [5]: active; positive
- mutagenic call [2]: active; positive

Structure (SMILES): [O-][Br+2]([O-])O
- mutagenic call (End Point: IN VITRO CHROMOSOMAL ABERRATIONS, Test System: CHL/IU CELLS, Metabolic Activation: NONE): active; positive (structural changes)
- mutagenic call (End Point: IN VITRO MICRONUCLEUS, Test System: CHL/IU CELLS, Metabolic Activation: NONE): active; positive
- mutagenic call (End Point: IN VIVO MICRONUCLEUS, Test System: BONE MARROW POLYCHROMATIC ERYTHROCYTES, Species: MOUSE, Strain/Sex: DDY/MALE, Route: ORAL): active; positive
- mutagenic call (End Point: In vitro chromosomal aberrations, Test System: Chinese hamster lung (CHL) cells, Metabolic Activation: None): active; positive (structural changes)
- mutagenic call (End Point: In vitro micronucleus, Test System: Human TK6 lymphoblastoid cells, Metabolic Activation: None): active; positive
- mutagenic call (End Point: In vivo micronucleus, Test System: Peripheral blood normochromatic erythrocytes, Species: Mouse, Strain/Sex: Tg.AC hemizygous/Female, Route: Dermal): active; positive
- mutagenic call (End Point: In vivo micronucleus, Test System: Peripheral blood normochromatic erythrocytes, Species: Mouse, Strain/Sex: Tg.AC hemizygous/Female, Route: Oral): active; positive
- mutagenic call (End Point: In vivo micronucleus, Test System: Peripheral blood normochromatic erythrocytes, Species: Mouse, Strain/Sex: Tg.AC hemizygous/Male, Route: Dermal): active; positive
- mutagenic call (End Point: In vivo micronucleus, Test System: Peripheral blood normochromatic erythrocytes, Species: Mouse, Strain/Sex: Tg.AC hemizygous/Male, Route: Oral): active; positive
- mutagenic call (End Point: In vivo micronucleus, Test System: Peripheral blood normochromatic erythrocytes, Species: Mouse, Strain/Sex: p53 Haploinsufficient/Female, Route: Oral): active; positive
- mutagenic call (End Point: In vivo micronucleus, Test System: Peripheral blood normochromatic erythrocytes, Species: Mouse, Strain/Sex: p53 Haploinsufficient/Male, Route: Oral): active; positive
- mutagenic call (End Point: In vivo mutagenicity, Test System: Kidney, Species: Rat, Strain/Sex: Big Blue/male, Route: Oral): active; positive for mutants and total mutation frequencies and frequency of gc to ta tr
- mutagenic call (Test System: AMES SALMONELLA TYPHIMURIUM, Strain/Indicator: TA97, Metabolic Activation: HAMSTER, LIVER, S-9, AROCLOR 1254 (10%), Method: PREINCUBATION): inactive; negative
- mutagenic call (Test System: AMES SALMONELLA TYPHIMURIUM, Strain/Indicator: TA97, Metabolic Activation: HAMSTER, LIVER, S-9, AROCLOR 1254 (30%), Method: PREINCUBATION): inactive; negative
- mutagenic call (Test System: AMES SALMONELLA TYPHIMURIUM, Strain/Indicator: TA97, Metabolic Activation: RAT, LIVER, S-9, AROCLOR 1254 (30%), Method: PREINCUBATION): inactive; negative
- mutagenic call (Test System: AMES SALMONELLA TYPHIMURIUM, Strain/Indicator: TA97, Metabolic Activation: RAT, LIVER, S-9, AROCLOR 1254, Method: PREINCUBATION): inactive; negative
- mutagenic call (Test System: AMES SALMONELLA TYPHIMURIUM, Strain/Indicator: TA98, Metabolic Activation: HAMSTER, LIVER, S-9, AROCLOR 1254 (30%), Method: PREINCUBATION): inactive; negative
- mutagenic call (Test System: AMES SALMONELLA TYPHIMURIUM, Strain/Indicator: TA98, Metabolic Activation: NONE, Method: PREINCUBATION): inactive; negative
- mutagenic call (Test System: AMES SALMONELLA TYPHIMURIUM, Strain/Indicator: TA98, Metabolic Activation: RAT, LIVER, S-9, AROCLOR 1254 (30%), Method: PREINCUBATION): inactive; negative
- mutagenic call (Test System: AMES SALMONELLA TYPHIMURIUM, Strain/Indicator: TA100, Metabolic Activation: HAMSTER, LIVER, S-9, AROCLOR 1254 (30%), Method: PREINCUBATION): inactive; negative
- mutagenic call (Test System: AMES SALMONELLA TYPHIMURIUM, Strain/Indicator: TA100, Metabolic Activation: NONE, Method: PREINCUBATION): inactive; negative
- mutagenic call (Test System: AMES SALMONELLA TYPHIMURIUM, Strain/Indicator: TA100, Metabolic Activation: RAT, LIVER, S-9, AROCLOR 1254 (30%), Method: PREINCUBATION): inactive; negative
- mutagenic call (Test System: AMES SALMONELLA TYPHIMURIUM, Strain/Indicator: TA102, Metabolic Activation: NONE, Method: PREINCUBATION): inactive; negative
- mutagenic call (Test System: AMES SALMONELLA TYPHIMURIUM, Strain/Indicator: TA102, Metabolic Activation: RAT, LIVER, S-9, AROCLOR 1254, Method: PREINCUBATION): inactive; negative
- mutagenic call (Test System: AMES SALMONELLA TYPHIMURIUM, Strain/Indicator: TA1535, Metabolic Activation: HAMSTER, LIVER, S-9, AROCLOR 1254 (10%), Method: PREINCUBATION): active; positive
- mutagenic call (Test System: AMES SALMONELLA TYPHIMURIUM, Strain/Indicator: TA1535, Metabolic Activation: NONE, Method: PREINCUBATION): inactive; negative
- mutagenic call (Test System: AMES SALMONELLA TYPHIMURIUM, Strain/Indicator: TA1537, Metabolic Activation: HAMSTER, LIVER, S-9, AROCLOR 1254 (10 OR 30%), Method: PREINCUBATION): inactive; negative
- mutagenic call (Test System: AMES SALMONELLA TYPHIMURIUM, Strain/Indicator: TA1537, Metabolic Activation: NONE, Method: PREINCUBATION): inactive; negative
- mutagenic call (Test System: AMES SALMONELLA TYPHIMURIUM, Strain/Indicator: TA1537, Metabolic Activation: RAT, LIVER, S-9, AROCLOR 1254 (10 OR 30%), Method: PREINCUBATION): inactive; negative
- mutagenic call (Test System: CHINESE HAMSTER V-79 CELLS, Strain/Indicator: V-79-UL (HPRT)/6-THIOGUANINE, Metabolic Activation: NONE, Method: SUSPENSION/PLATE): active; positive
- mutagenic call (Test System: Human lymphoblastoid cells, Strain/Indicator: TK6 (HPRT)/6-thioguanine, Metabolic Activation: None, Method: Suspension/Well): active; positive

Structure (SMILES): Oc1ccc2[nH]c3ccccc3c2c1
- mutagenic call (Test System: CHINESE HAMSTER OVARY, Strain/Indicator: CHO-K1-BH4 (HGPRT)/6-THIOGUANINE, Metabolic Activation: RAT, LIVER, S-9, AROCLOR (4%)): active; positive

Structure (SMILES): O=C(Nc1cc(Cl)cc(Cl)c1O)c1c(O)c(Cl)cc(Cl)c1Cl
- mutagenic call [4]: inactive; negative
- mutagenic call (Test System: AMES SALMONELLA TYPHIMURIUM, Strain/Indicator: TA98, Metabolic Activation: RAT, LIVER, S-9, KANECHLOR 400, Method: STANDARD PLATE): inactive; negative
- mutagenic call [1]: inactive; negative
- mutagenic call (Test System: AMES SALMONELLA TYPHIMURIUM, Strain/Indicator: TA100, Metabolic Activation: RAT, LIVER, S-9, KANECHLOR 400, Method: STANDARD PLATE): inactive; negative
- mutagenic call [5]: inactive; negative
- mutagenic call (Test System: AMES SALMONELLA TYPHIMURIUM, Strain/Indicator: TA1535, Metabolic Activation: RAT, LIVER, S-9, KANECHLOR 400, Method: STANDARD PLATE): inactive; negative
- mutagenic call [2]: inactive; negative
- mutagenic call (Test System: AMES SALMONELLA TYPHIMURIUM, Strain/Indicator: TA1537, Metabolic Activation: RAT, LIVER, S-9, KANECHLOR 400, Method: STANDARD PLATE): inactive; negative
- mutagenic call [3]: inactive; negative
- mutagenic call (Test System: AMES SALMONELLA TYPHIMURIUM, Strain/Indicator: TA1538, Metabolic Activation: RAT, LIVER, S-9, KANECHLOR 400, Method: STANDARD PLATE): inactive; negative

Structure (SMILES): C=CC(C)(C)c1cc2cc3c(cc2oc1=O)OC(C(C)(C)OC(C)=O)C3 (centres undefined)
- mutagenic call [4]: inactive; negative
- mutagenic call (Test System: AMES SALMONELLA TYPHIMURIUM, Strain/Indicator: TA98, Metabolic Activation: RAT, LIVER, S-9, PHENOBARBITAL, Method: STANDARD PLATE): inactive; negative
